Reference: PubChem BioAssay AID179 (DTP/NCI, 2004)
Values joined by “and” are separate entries in the source; they are usually repeats but may differ in a detail not shown here. Identical values can stand only once. Active and inactive are the calls of the source.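 How the source made its calls: active means compounds giving half or more protection of infected cells from virus-caused growth loss, again on retest; inactive means the rest.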 Where a SMILES comes first, the peptide text is derived from it. The star is where a group is joined. Cbz = O=C(OCc1ccccc1)*

System: CEM cells HIV-1 protection, formazan growth assay
Test: NCI AIDS Antiviral Assay
Details: for IC50: measured here: growth of uninfected CEM cells
In short: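 Steps: treat uninfected and HIV-1-infected human CEM cells at five drug levels; quantify growth by soluble formazan; retest any compound reaching 50% protection; classify actives from the retest.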

Structure (SMILES)	EC50 [µM]	IC50	outcome
CCOC(=O)c1c(-c2ccccc2)oc(=O)c(Cc2cccc3cccnc23)c1-c1ccccc1	> 200	> 200 µM	–
CC(=N)N(C)O	> 2000	> 2000 µM	–
Cc1cnc2c(c1)C(=O)N(c1ccc([N+](=O)[O-])cc1)S2(=O)=O	> 200	17.4 µM	–
C/C(O)=C(\N=O)C(=O)NCCc1ccccc1	> 288	> 288 µM	–
COc1ccc(C(C)(C)c2cc3c(cc2OC)OCO3)cc1	> 45.7	0.0316 µM	–
N/N=C(\CC1OC(=O)c2ccccc21)c1ccco1 (configuration not stated)	> 977	617 µM	–
CNc1cc(Cl)ccc1S(=O)(=O)c1ccccc1[N+](=O)[O-]	5.37	> 200 µM	–
COc1ccc(N2C(=O)C3c4[nH]c5ccc(OCc6ccccc6)cc5c4C4CCC(C(C)(C)C)CC4C3C2=O)cc1 (configuration not stated)	> 200	16.6 µM	–
CCOC(=O)c1cn2c([nH]c3ccccc32)c(C#N)c1=O	> 47.9	> 47.9 µM	–
CC(=O)C(=[N+]=[N-])C(=O)N1CCOC1=O	> 200	> 200 µM	–
Cc1cc2nc3c(C(OC4OC(CO)C(O)C(O)C4O)C(O)CO)nn(-c4ccc(F)cc4)c3nc2cc1C (configuration not stated)	–	–	inactive
CC1=C(C(=O)Nc2ccccc2C)C(c2ccc(C3C(C(=O)Nc4ccccc4C)=C(C)NC(C)=C3C(=O)Nc3ccccc3C)cc2)C(C(=O)Nc2ccccc2C)=C(C)N1	–	–	inactive
COc1ccc(NC2=NCCO2)c2ccccc12	> 200	46.8 µM	–
COc1ccc(N2C(=O)C3c4[nH]c5ccccc5c4C4c5ccccc5CC4C3C2=O)cc1 (configuration not stated)	> 200	> 200 µM	–
O=C(/C=C/c1ccccc1)NC1C=Nc2ccc([N+](=O)[O-])cc2NC1=O (configuration not stated)	> 102	93.3 µM	–
CC(C)=CCN1Cc2c(F)ccc3[nH]c(=S)n(c23)CC1C (configuration not stated)	0.0398	70.8 µM	–
CCOc1cc2cnc3c4cc(OC)c(OC)cc4ccc3c2cc1OC	> 70.8	34.7 µM	–
COc1cccc2c1C(=O)c1c(O)c3c(c(O)c1C2=O)C[C@@](O)(C(=O)CO)C[C@@H]3OC1CC(N)C(OC)C(C)O1 (some centres not stated)	> 0.2	0.0195 µM	–
CCOC(=S)/C=C/c1ccccc1	–	–	inactive
O=C(/C=C/c1ccccc1)NC1C=Nc2ccccc2NC1=O (configuration not stated)	148	> 200 µM	–
CN1CCOC(c2ccc(Cl)cc2)O1 (configuration not stated)	–	–	inactive
COc1ccc(/C=C2/Cc3cccc4c([N+](=O)[O-])ccc2c34)cc1	> 100	> 100 µM	–
COc1cc(OC)c(OC)cc1/C=N/N=C(\N)NO	> 200	> 200 µM	–

Structure (SMILES)	EC50 [µM]	IC50	outcome
C[C@H](O)C(=O)SC[C@H](NC(=O)CC[C@@H](N)C(=O)O)C(=O)NCC(=O)O	> 200	> 200 µM	–
CONC(CC(=O)c1ccccc1)c1ccccc1 (configuration not stated)	> 4.07	> 4.07 µM	–
CC(=O)c1c2c(cc3c1CC1(C3)Cc3cc4c(c(C(=O)O)c3C1)CCC4)CCC2 (configuration not stated)	> 18.6	> 18.6 µM	–
COc1cc(CC2C(=O)OCC2[C@@H](OC(C)=O)c2ccc3c(c2)OCO3)c(Br)c(OC)c1OC (some centres not stated)	> 50.1	43.7 µM	–
COc1ccc(C2(CC(C)C)CCN(S(=O)(=O)c3ccc(C)cc3)C2)cc1OC (configuration not stated)	> 178	20 µM	–
O=S(=O)(SCCCCSS(=O)(=O)c1ccc(Cl)cc1)c1ccc(Cl)cc1	8.13	9.55 µM	–
O=C(CCCN1CCc2[nH]c3ccccc3c2C1)c1ccc(F)cc1	> 200	33.9 µM	–
COc1c2occc2c(N)c2ccc(=O)oc12	> 95.5	> 95.5 µM	–
COc1ccc(NC(=O)CSc2nnc(-c3ccc(NC(C)=O)cc3)o2)cc1	> 33.9	19.1 µM	–
CCOC(=O)/C(=C/c1ccc([N+](=O)[O-])cc1)N(CC)CC	> 324	> 324 µM	–
Cc1ccc(C)n1-n1c(Cc2ccccc2)n[nH]c1=O	> 200	83.2 µM	–
C1C2CC3C1C1CN3C21 (configuration not stated)	> 724	> 724 µM	–
COC1CC(C)(NC(=O)C(F)(F)F)C2OC(c3ccccc3)OCC2O1 (configuration not stated)	> 200	> 200 µM	–
COc1ccc2c(c1)OC[C@@H]1c3cc(NC(=O)c4ccccc4)c(OC)cc3N(S(=O)(=O)c3ccccc3)[C@H]21	> 200	> 200 µM	–
CC#CC(=O)Nc1ccccc1CC(c1c[nH]c2ccccc12)c1c[nH]c2ccccc12	> 35.5	19.1 µM	–
O=C(/C=C(\O)C(=O)O)/C=C(\O)c1ccccc1	> 200	> 200 µM	–
Cn1cnc([N+](=O)[O-])c1Sc1nc2ncccc2[nH]1	> 912	21.9 µM	–
O=C1C(/C=N\C(=S)NCc2ccccc2)=C(O)c2ccccc21	> 200	67.6 µM	–
CSc1nc(C)c(Br)c(=O)n1C1OC(COC(C)=O)C(OC(C)=O)C(OC(C)=O)C1OC(C)=O (configuration not stated)	> 200	> 200 µM	–
O=S(=O)(O)c1ccc(N=Nc2ccc(O)cc2O)cc1	> 200	112 µM	–
Cc1cc(N)c2cc(NC(=O)CCCCCCCCC(=O)Nc3ccc4nc(C)cc(N)c4c3)ccc2n1	–	–	inactive
O=C1/C(=C/c2ccc(F)cc2)CCc2ccccc21	> 10.7	> 10.7 µM	–
O=C(c1ccc(Cl)cc1)c1cnc(Nc2ccccc2Cl)s1	> 10.7	> 10.7 µM	–

Structure (SMILES)	EC50 [µM]	IC50	outcome
COc1ccc(/C=C\c2cc(OC)c(OC)c(OC)c2)cc1OC(=O)C(N)CCC(=O)O (configuration not stated)	> 447	–	–
O=C1/C(=C\c2ccc([N+](=O)[O-])cc2)N(S(=O)(=O)c2ccccc2)c2ncccc21	> 200	13.5 µM	–
CC1(C)CC(=O)C(/C=N/C(N)=S)=C(O)C1	> 200	> 200 µM	–
Nc1ccc(C(=O)N/C(=C\c2cccc([N+](=O)[O-])c2)c2nc3ccc(Cl)cc3[nH]2)cc1	–	–	inactive
CCOc1ccc(Nc2nc3c(s2)C(=O)c2ccccc2C3=O)cc1	> 110	9.55 µM	–
CC1CC(C)(C)OB(OC(C)CC(C)(C)OB2OC(C)CC(C)(C)O2)O1 (configuration not stated)	> 200	> 200 µM	–
CCO/C(O)=c1/s/c(=C(\C#N)c2nc3ccccc3[nH]2)n(-c2ccccc2)c1=N	> 17.8	15.1 µM	–
O=S(=O)(CCCCl)SCCCCl	> 145	20 µM	–
COC(=O)C=Cc1ccc2nncnc2c1 (mixture of isomers)	> 200	44.7 µM	–
Nc1ccccc1OCCCOc1ccccc1N	> 200	110 µM	–
COC(=O)/C=C\C(C#N)(C#N)N=Cc1cc(Br)cs1	> 2	0.676 µM	–
[N-]=[N+]=Nc1cc(=O)[nH]c2ccccc12	> 200	> 200 µM	–
O=C1Nc2ccccc2Nc2nc3cccccc-3c21	> 100	> 100 µM	–
O=C1C=CC(O)=CC1=P(c1ccccc1)(c1ccccc1)c1ccccc1	> 200	32.4 µM	–
C=CC(C)(C)n1cc(C2=C3OC(=O)C(c4cn(C(C)(C)C=C)c5ccccc45)=C3OC2=O)c2ccccc21	> 200	> 200 µM	–
C=C1C(=O)OC2CC(C)C3C(OC(C)=O)CC(OC(C)=O)C3(C)CC12 (configuration not stated)	> 97.7	6.76 µM	–
O=C1CCCCCCCCCCCC(=O)OCCO1	> 132	> 132 µM	–
NC(CCC(=O)NCCCC(=O)O)C(=O)O (configuration not stated)	> 85.1	> 85.1 µM	–
O=C(O)c1n[nH]nc1Cl	> 200	> 200 µM	–
COc1cc(OC)c(-c2oc3ccccc3c(=O)c2O)c(OC)c1	–	–	inactive
CC[n+]1c(-c2ccccc2)c2cc(N)ccc2c2ccc(N)cc21	> 708	0.794 µM and 0.525 µM	–
O=C1CC(=O)NP(=O)(Oc2ccccc2)N1	> 1050	> 1050 µM	–
CC(=O)OC/C=C(/C)C[P+](c1ccccc1)(c1ccccc1)c1ccccc1	> 200	0.955 µM	–

Structure (SMILES)	EC50 [µM]	IC50	outcome
CCOC(=O)CCC(NC(=O)OCc1ccccc1)C(=O)NC(CCC(=O)OCC)C(=O)OCC (configuration not stated) (Cbz-Glu(OEt)-Glu(OEt)-OEt; configuration not given here)	> 200	> 200 µM	–
O=C1OC(OC/C(Br)=C(/Br)COC2OC(=O)C(Cl)=C2Cl)C(Cl)=C1Cl (configuration not stated)	> 200	3.47 µM	–
COc1ccc(-c2nc3ccccc3c(=S)n2OC(C)=O)cc1	> 200	1.7 µM	–
O=C1C(=Cc2c(O)cc(O)cc2O)C(=O)c2ccccc21	> 17.8	> 17.8 µM	–
Cn1c(=O)c(N=Nc2c(=O)n(C)c(=O)n3c2[nH]c2ccccc23)c2[nH]c3ccccc3n2c1=O	> 33.9	> 33.9 µM	–
Cc1ncc([N+](=O)[O-])n1CCN(C)C(=O)CCCn1ccnc1[N+](=O)[O-]	> 200	> 200 µM	–
CCOC(=O)C(=O)Nc1c(C)cccc1CC	> 776	> 776 µM	–
CCCNC1=C(Cl)C(=O)c2ccccc2C1=O	> 145	26.3 µM	–
Cc1cc(NC(=O)NC(=O)c2ccccc2[N+](=O)[O-])ccc1Oc1ncc(Cl)cn1	–	–	inactive
CC(C)CCc1n[nH]c(=O)n1/N=C\c1ccccc1	> 200	66.1 µM	–
O=c1c2cc([N+](=O)[O-])ccc2n2n1Cc1ccccc1C2	> 200	> 200 µM	–
CSCCC(N)CO (configuration not stated)	> 200	> 200 µM	–
CCSC1=N/C(=C\c2ccco2)C(NN)=N1	> 50.1	> 50.1 µM	–
OC12c3ccccc3C1CCCCC2N1CCCC1 (configuration not stated)	> 200	> 200 µM	–
O=C(O)CCC1C(=O)C2CCN1CC2 (configuration not stated)	> 200	> 200 µM	–
COc1ccc(-c2csc3c2-n2cccc2C3=O)cc1	> 2	0.0363 µM	–
CS(=O)(=O)NC(=O)C[P+](c1ccccc1)(c1ccccc1)c1ccccc1	> 200	> 200 µM	–
COc1cccc(N2CCc3c(C)c(C#N)c4nc5ccccc5n4c32)c1	> 100	> 100 µM	–
Nc1nc(Cl)cc(NCCC2(CO)CCC2)n1	> 200	> 200 µM	–
CC(C)(C)OC(=O)CN1CCNCCNCC1	> 100	> 100 µM	–
CCN(CC(O)COc1ccc2c(c1)[n+]([O-])nc(N)[n+]2[O-])C(C)=O (configuration not stated)	> 200	23.4 µM	–
C[C@]12CCC(=O)C(O)=C1CCC2=O	–	–	inactive
